Source: paper PMC9232636, “Insights into the mechanism of action of the arbitrium communication system in SPbeta phages” (Nature Communications, 2022)
Entries after “also recorded” stand apart in the source; their conditions may differ.

Tests used:
AimR^Kat-N273A [1] = biological target: T1, AimR^Kat-N273A (Bacillus subtilis, UniProt A0A8I3AZZ2, N274A); assay: ITC, AimP binding to AimR^Kat-N273A; design: species or system Katmira phage; details: 25 °C, 25 mM Tris-HCl pH 8, 250 mM NaCl
Procedure: ITC assays were carried out in a Nano ITC Low Volume (TA instruments). In the assays, proteins (AimR^Kat or AimR^Kat-N273A) and peptides concentration were 10 and 50 μM, respectively, and both were diluted in buffer 25 mM Tris-HCl pH 8, 250 mM NaCl. The experiments were performed at 25 °C. The data obtained was integrated, corrected and analysed using the NanoAnalyze software (TA Instruments) with a single-site or two-site binding models.

AimR^Kat = biological target: T2, AimR^Kat (Bacillus subtilis (Katmira prophage), UniProt A0A8I3AZZ2); assay type: binding, Katmira phage; details: for Tm: Supplementary Fig. 5a, peptides at 0.5mM; for effect on Tm / stabilisation (in words): ThermoFluor
T2 sequence (A0A8I3AZZ2 2-387): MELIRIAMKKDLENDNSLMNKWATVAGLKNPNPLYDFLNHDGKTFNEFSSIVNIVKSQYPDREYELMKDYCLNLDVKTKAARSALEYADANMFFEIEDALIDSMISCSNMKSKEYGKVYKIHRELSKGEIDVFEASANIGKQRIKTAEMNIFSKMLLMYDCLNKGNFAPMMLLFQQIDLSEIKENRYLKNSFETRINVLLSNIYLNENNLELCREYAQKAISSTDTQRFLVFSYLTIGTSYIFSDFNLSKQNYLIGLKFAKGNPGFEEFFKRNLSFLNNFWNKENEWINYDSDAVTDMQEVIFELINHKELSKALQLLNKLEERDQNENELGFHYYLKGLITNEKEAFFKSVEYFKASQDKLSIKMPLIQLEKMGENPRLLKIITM
Procedure: The thermal shift assay was conducted in a 7500 Fast Real time PCR System (Applied Biosystems) as previously described. Briefly, samples of 20 μl buffer (20 mM Tris pH 8 and 250 mM NaCl) containing 5× Sypro Orange (Sigma-Aldrich) and 20 μM of protein were loaded in 96-well PCR plates. […] Samples were heated from 25 to 85 °C in steps of one degree. Fluorescent intensity was plotted versus temperature and integrated with GraphPad Prism software using a Boltzmann model to calculate melting temperatures.

AimR^Kat-DNA interaction = assay: EMSA, peptide-induced release of AimR^Kat from its DNA operator; assay type: biochemical, Katmira phage; details: protein preincubated with 0.5 μM peptide 10 min, repeated three times
Procedure: (§1) AimR binding to its operator and the inhibition induced by the arbitrium peptide was analysed by native polyacrylamide and agarose gel electrophoresis. Double strand DNA primer probes were purchased from Macrogen. DNA (10 ng µl^−1) and AimR (from 0.5 μM) protein was mixed in EMSA buffer (50 mM tris pH8, 250 mM NaCl). The samples were incubated for 10 min at room temperature. For peptide inhibition assay, protein was preincubated with 0.5 μM peptide for 10 min before DNA addition. Electrophoresis was then performed in 8% polyacrylamide gels in Tris-Borate-EDTA (TBE) buffer for about 150 min at 100 V at 4 °C.

[2] = tested on: AimR^Kat-N273A-DNA interaction; assay: EMSA, peptide-induced release of AimR^Kat-N273A from its target DNA; assay type: biochemical, Katmira phage; details: protein preincubated with 0.5 μM peptide 10 min, repeated three times
Procedure: as §1

AimR^Kat-N273A [3] = biological target: T1, AimR^Kat-N273A; assay: Thermal shift assay of AimR^Kat-N273A with peptides; assay type: binding, Katmira phage; details: ThermoFluor
Procedure: The thermal shift assay was conducted in a 7500 Fast Real time PCR System (Applied Biosystems) as previously described. Briefly, samples of 20 μl buffer (20 mM Tris pH 8 and 250 mM NaCl) containing 5× Sypro Orange (Sigma-Aldrich) and 20 μM of protein were loaded in 96-well PCR plates. To calculate the Tm in the presence of the peptide, 0.5 μM of GMPRGA or GIVRGA peptide was added to the mixture. Samples were heated from 25 to 85 °C in steps of one degree. Fluorescent intensity was plotted versus temperature and integrated with GraphPad Prism software using a Boltzmann model to calculate melting temperatures.

[4] = tested on: SPβ ΔaimR prophage complemented with AimR^SPβ; assay: Prophage induction and phage titering, SPβ ΔaimR complemented with AimR^SPβ; assay type: cell-based, phage SPβ in B. subtilis; details: for phage titer: JP 20223, 5 μM peptide, MC induced
Procedure: For induction, an overnight culture was diluted 1/100 in LB media supplemented with 0.1 mM MnCl2 and 5 mM MgCl2 and then grown at 37 °C with 210 rpm shaking until reaching absorbance 0.2 at 600 nm. This step was repeated twice to ensure the cells were in exponential growth. After the second growth, Mitomycin C (MC) at 0.5 μg ml^−1 was added to the culture. Where experiments were performed to test the effect of peptide on phage titre, 5 μM of the relevant peptide was added before starting the second growth to ensure the bacteria cells were able to incorporate the peptide. The induced cultures were incubated at 30 °C with 80 rpm shaking for 4 h and then left overnight at room temperature. Following lysis, samples were filtered using 0.2 μm filters and lysates were stored at 4 °C until use.
The number of phage particles contained in the phage lysate of interest was quantified by a titering assay. An overnight culture of the relevant recipient strain (normally B. subtilis ∆6 or with the corresponding plasmid) was diluted 1/100 in LB supplemented with 0.1 mM MnCl2 and 5 mM MgCl2 and then grown at 37 °C with 210 rpm shaking until reaching absorbance 0.2 at 600 nm. When required 1 mM IPTG was added. Then, 100 μl of recipient bacteria was infected with 100 μl of serial dilutions of phage lysate in phage buffer (PhB; 1 mM NaCl, 0.05 M Tris pH 7.8, 0.1 mM MnCl2, 5 mM MgCl2) at room temperature for 10 min and 3 ml of phage top agar (LB media supplemented with 0.1 mM MnCl2 and 5 mM MgCl2 and 0.7 % agar) at 55 °C was added to the culture-phage mix and immediately poured over phage base agar plates (LB media supplemented with 0.1 mM MnCl2 and 5 mM MgCl2 and 1.5% agar). Plaques were counted after overnight growth at 37 °C temperature and photographed.

AimR^SPβ = details: previously reported; cited from earlier work

Substance | binding by ITC (in words) (AimR^Kat-N273A [1]) | Tm (AimR^Kat) | effect on Tm / stabilisation (in words) (AimR^Kat) | release of AimR^Kat from DNA (AimR^Kat-DNA interaction) | release of AimR^Kat from DNA (AimR^Kat-DNA interaction; listed as SAIRGA) | release of AimR^Kat-N273A from DNA [2] | stabilisation / binding capacity (in words) (AimR^Kat-N273A [3]) | release of AimR^Kat from DNA (AimR^Kat-DNA interaction; listed as GMPRGA) | phage titer ([4]; repeat 1) [pfu/ml] | phage titer ([4]; repeat 2) [pfu/ml] | phage titer ([4]; repeat 3) [pfu/ml] | phage titer ([4]; repeat 4) [pfu/ml] | phage titer ([4]; repeat 5) [pfu/ml] | phage titer ([4]; repeat 6) [pfu/ml] | phage titer ([4]; repeat 7) [pfu/ml] | reduction of phage titre ([4]; MC 0.5 μg/ml, 5 μM peptide, compared with no peptide) [times] | increase of Tm (AimR^SPβ) [°C]
SAIRGA [AimP^Phi, the phi3T AimP peptide] | unable to bind | 43 ºC | did not have any effect | insensitive | neither GMPRGA (AimP^SPβ) nor SAIRGA (the phi3T AimP peptide, AimP^Phi) (Fig. 1b) affected AimR^Kat in its ability to recognise its cognate DNA box | insensitive | – | – | – | – | – | – | – | – | – | – | –
GMPRGA [AimP^SPβ, the SPβ AimP peptide] | – | 43 ºC | did not have any effect | only AimP^Kat for the wt form | – | induce DNA releases for the N273A mutant form of AimR^Kat; also recorded: able to induce the release of AimR^Kat-N273A from its target DNA | stabilises AimR^Kat-N273A | neither GMPRGA (AimP^SPβ) nor SAIRGA (the phi3T AimP peptide, AimP^Phi) (Fig. 1b) affected AimR^Kat in its ability to recognise its cognate DNA box | 7.90E+08 | 9.60E+07 | 2.12E+09 | 6.30E+07 | 8.90E+07 | 2.90E+08 | 7.80E+07 | 10 | 10
